From US20250381306A1, “COMPOSITIONS AND METHODS FOR TREATING DIABETIC CARDIOMYOPATHY” (UNIVERSITY OF UTAH RESEARCH FOUNDATION, priority 2022, published 2025) come the findings set out here.

The test system of this assay is cardiomyocytes. The experiment in a line: Adult primary cardiomyocyte glucose uptake test. The following applies: db/db cardiomyocytes, 10 nM insulin, metformin (20 µM) positive control. In kind it is cell-based, mouse. How it is done: Adult mouse cardiomyocytes were isolated from both male and female mice with collagenase II (2 mg/mL, Worthington Biochemical Corporation). Freshly isolated cardiomyocytes were seeded in laminin-precoated culture dishes and cultured in perfusion buffer (120.4 mM NaCl, 14.7 mM KCl, 0.6 mM KH2PO4, 0.6 mM Na2HPO4, 1.2 mM MgSO4×7H2O, 10 mM Hepes, 4.6 mM NaHCO3, 30 mM taurine, and 5.5 mM glucose) for 1 hour in 37° C. and 5% CO2 incubator prior to further experiments.
For glucose uptake assays, freshly isolated CMCs were seeded and cultured in laminin-precoated 96-well plates for 1 hour prior to the test. Cells were then washed twice with glucose-free perfusion buffer (120.4 mM NaCl, 14.7 mM KCl, 0.6 mM KH2PO4, 0.6 mM Na2HPO4, 1.2 mM MgSO4: 7H2O, 10 mM HEPES) and starved in starvation buffer (glucose-free perfusion buffer containing 1 mM pyruvate, 0.1% BSA) for 40 min. Metformin (0, 20 μM) was loaded together with starvation buffer in the indicated groups. Cells were then stimulated in the absence or presence of insulin (0, 10 nM) (Sigma-Aldrich) for 20 min. Following the manufacturer's instructions, 2 DG-glucose uptake test in CMCs was then determined by Glucose Uptake Assay kit (Abcam) and quantified with a FlexStation 3 plate reader (Molecular Devices).

`CN(C)C(=N)N=C(N)N` [metformin]: the “insulin-stimulated uptake of 2-Deoxy-D-glucose” value was “rescue”.
